Measurements: patent US12404295B2, “(Hetero)aryl-methyl-thio-beta-D-galactopyranoside derivatives” (Idorsia Pharmaceuticals Ltd, priority 2019, dated 2025)
Like-named read-outs stand apart in the source and are kept apart here.

Experiments:
human Gal-3 (hGal-3) = human Gal-3 (hGal-3) (Homo sapiens (Human), UniProt P17931); experiment: competitive binding assay: biotinylated hGal-3 binding to microplate-adsorbed asialofetuin (ASF)
How it was run: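 3 h, 4 °C binding step; cold buffer wash; streptavidin-HRP 80 ng/mL, 1 h, 4 °C; ABTS colorimetric read-out. Compounds diluted serially in DMSO. IC50 reported as mean of repeat runs.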

human Gal-1 (hGal-1) = human Gal-1 (hGal-1) (Homo sapiens (Human), UniProt P09382); experiment: competitive binding assay: biotinylated hGal-1 binding to microplate-adsorbed asialofetuin (ASF); conditions: Table 15; read-out: IC50 (Galectin-1 inhibition)
How it was run: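 Spectrophotometric competition readout: after compound and biotinylated hGal-1 (300-1000 ng/mL) sit 3 h at 4° C on adsorbed asialofetuin, streptavidin-peroxidase (1 h, 4° C) and ABTS reveal residual binding. Reported IC50 values are means of repeat runs.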

[1] = Gal-3 inhibition, binding of biotinylated hGal-3 to ASF, mean values, read-out: IC50
[2] = Table 9, 2-OMe-Gal inhibitors, read-out: IC50 (Gal-3 inhibition)
[3] = Table 5, read-out: IC50 (Gal-3 inhibition)

Chain of human Gal-1 (hGal-1) (P09382 whole entry): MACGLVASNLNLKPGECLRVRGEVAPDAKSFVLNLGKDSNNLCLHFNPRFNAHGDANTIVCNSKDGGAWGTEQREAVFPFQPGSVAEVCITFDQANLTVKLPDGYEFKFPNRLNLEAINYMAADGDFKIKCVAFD
Chain of human Gal-3 (hGal-3) (P17931 whole entry): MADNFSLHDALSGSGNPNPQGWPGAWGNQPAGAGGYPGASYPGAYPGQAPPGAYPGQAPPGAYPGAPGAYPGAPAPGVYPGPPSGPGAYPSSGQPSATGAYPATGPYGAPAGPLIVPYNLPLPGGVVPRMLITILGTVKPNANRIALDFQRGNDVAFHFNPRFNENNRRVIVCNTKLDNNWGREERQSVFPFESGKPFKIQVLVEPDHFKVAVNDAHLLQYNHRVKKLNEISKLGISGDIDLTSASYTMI

Row | Molecule | IC50 (human Gal-3 (hGal-3); [1]) [nM] | IC50 (human Gal-1 (hGal-1)) [nM] | also measured
1 | CO[C@@H]1[C@@H](n2cc(-c3cc(F)c(F)c(F)c3)nn2)[C@@H](O)[C@@H](CO)O[C@H]1SC(c1ccccc1C(F)(F)F)C1(O)CCN(S(=O)(=O)C2CC2)CC1 (stereo partly drawn) [Example 2.51.112.I., 1-(Cyclopropylsulfonyl)-4-((((2S,3R,4S,5R,6R)-5-hydroxy-6-(hydroxymethyl)-3-methoxy-4-(4-(3,4,5-trifluorophenyl)-1H-1,2,3-triazol-1-yl)tetrahydro-2H-pyran-2-yl)thio)(2-(trifluoromethyl)phenyl)methyl)piperidin-4-ol] | 80 | 350 | –
2 | CO[C@@H]1[C@@H](n2cc(-c3cc(F)c(F)c(F)c3)nn2)[C@@H](O)[C@@H](CO)O[C@H]1S[C@H](c1ncccc1C)C1(O)CCS(=O)(=O)CC1 [Example 2.66.126R.I., 4-Hydroxy-4-((R)-(((2S,3R,4S,5R,6R)-5-hydroxy-6-(hydroxymethyl)-3-methoxy-4-(4-(3,4,5-trifluorophenyl)-1H-1,2,3-triazol-1-yl)tetrahydro-2H-pyran-2-yl)thio)(3-methylpyridin-2-yl)methyl)tetrahydro-2H-thiopyran 1,1-dioxide] | – | 90 | IC50 (human Gal-3 (hGal-3); [2]): 60 nM
3 | CO[C@@H]1[C@@H](n2cc(-c3cc(F)c(F)c(F)c3)nn2)[C@@H](O)[C@@H](CO)O[C@H]1S[C@H](c1c(C)cnn1C)C1(O)CCC(F)(F)CC1 [Example 2.44.136R.I., (2R,3R,4S,5R,6S)-6-(((R)-(4,4-Difluoro-1-hydroxycyclohexyl)(1,4-dimethyl-1H-pyrazol-5-yl)methyl)thio)-2-(hydroxymethyl)-5-methoxy-4-(4-(3,4,5-trifluorophenyl)-1H-1,2,3-triazol-1-yl)tetrahydro-2H-pyran-3-ol] | – | 1900 | IC50 (human Gal-3 (hGal-3); Table 10, 2-OMe-Gal inhibitors, read-out: IC50 (Gal-3 inhibition)): 260 nM
4 | CO[C@@H]1[C@@H](n2cc(-c3cc(F)c(F)c(F)c3)nn2)[C@@H](O)[C@@H](CO)O[C@H]1S[C@H](c1nnccc1C)C1(O)CCC(F)(F)CC1 [Example 2.44.135R.I., (2R,3R,4S,5R,6S)-6-(((R)-(4,4-Difluoro-1-hydroxycyclohexyl)(4-methylpyridazin-3-yl)methyl)thio)-2-(hydroxymethyl)-5-methoxy-4-(4-(3,4,5-trifluorophenyl)-1H-1,2,3-triazol-1-yl)tetrahydro-2H-pyran-3-ol] | – | 200 | IC50 (human Gal-3 (hGal-3); [2]): 70 nM
5 | Cc1nc(C)c([C@@H](S[C@@H]2O[C@H](CO)[C@H](O)[C@H](n3cc(-c4cc(F)c(F)c(F)c4)nn3)[C@H]2O)C(C)(C)O)nc1C [Example 2.31.119R., (2S,3R,4S,5R,6R)-2-(((R)-2-Hydroxy-2-methyl-1-(3,5,6-trimethylpyrazin-2-yl)propyl)thio)-6-(hydroxymethyl)-4-(4-(3,4,5-trifluorophenyl)-1H-1,2,3-triazol-1-yl)tetrahydro-2H-pyran-3,5-diol] | 270 | 1150 | –
6 | OC[C@H]1O[C@@H](SC(c2ncccc2C(F)(F)F)C2(O)CCCC2)[C@H](O)[C@@H](n2cc(-c3cc(F)c(F)c(F)c3)nn2)[C@H]1O (some centres unmarked) [Example 2.38.125.] | 130 | 760 | –
7 | CCc1ccccc1C(S[C@@H]1O[C@H](CO)[C@H](O)[C@H](n2cc(-c3cc(F)c(F)c(F)c3)nn2)[C@H]1O)C(C)(C)O (stereo partly drawn) [Example 2.31.103., (2S,3R,4S,5R,6R)-2-((1-(2-Ethylphenyl)-2-hydroxy-2-methylpropyl)thio)-6-(hydroxymethyl)-4-(4-(3,4,5-trifluorophenyl)-1H-1,2,3-triazol-1-yl)tetrahydro-2H-pyran-3,5-diol] | 300 | 1230 | –
8 | OC[C@H]1O[C@@H](SC(c2ccccc2C(F)(F)F)C(O)c2ccccc2)[C@H](O)[C@@H](n2cc(-c3cc(F)c(F)c(F)c3)nn2)[C@H]1O (stereo partly drawn) [Example 2.61.112., (2S,3R,4S,5R,6R)-2-((2-Hydroxy-2-phenyl-1-(2-(trifluoromethyl)phenyl)ethyl)thio)-6-(hydroxymethyl)-4-(4-(3,4,5-trifluorophenyl)-1H-1,2,3-triazol-1-yl)tetrahydro-2H-pyran-3,5-diol] | 1100 | 7880 | –
9 | Cc1nccnc1[C@H](S[C@@H]1O[C@H](CO)[C@H](O)[C@H](n2cc(-c3cc(F)c(F)c(F)c3)nn2)[C@H]1O)C1(O)CCC(F)(F)CC1 [Example 2.44.129S., (2S,3R,4S,5R,6R)-2-(((S)-(4,4-Difluoro-1-hydroxycyclohexyl)(3-methylpyrazin-2-yl)methyl)thio)-6-(hydroxymethyl)-4-(4-(3,4,5-trifluorophenyl)-1H-1,2,3-triazol-1-yl)tetrahydro-2H-pyran-3,5-diol] | 1480 | 6300 | –
10 | Cc1cccnc1[C@@H](S[C@@H]1O[C@H](CO)[C@H](O)[C@H](n2cc(-c3cc(F)c(F)c(F)c3)nn2)[C@H]1O)C1(O)CCS(=O)(=O)CC1 [Example 2.66.126R., 4-((R)-(((2S,3R,4S,5R,6R)-3,5-Dihydroxy-6-(hydroxymethyl)-4-(4-(3,4,5-trifluorophenyl)-1H-1,2,3-triazol-1-yl)tetrahydro-2H-pyran-2-yl)thio)(3-methylpyridin-2-yl)methyl)-4-hydroxytetrahydro-2H-thiopyran 1,1-dioxide] | 20 | 170 | –
11 | CC(C)c1ccccc1[C@H](S[C@@H]1O[C@H](CO)[C@H](O)[C@H](n2cc(-c3cc(F)c(F)c(F)c3)nn2)[C@H]1O)C(C)(C)O [Example 2.31.105S., (2S,3R,4S,5R,6R)-2-(((S)-2-Hydroxy-1-(2-isopropylphenyl)-2-methylpropyl)thio)-6-(hydroxymethyl)-4-(4-(3,4,5-trifluorophenyl)-1H-1,2,3-triazol-1-yl)tetrahydro-2H-pyran-3,5-diol] | 8300 | 65100 | –
12 | CCc1c(C(S[C@@H]2O[C@H](CO)[C@H](O)[C@H](n3cc(-c4cc(F)c(F)c(F)c4)nn3)[C@H]2O)C2(O)CCC(F)(F)CC2)noc1C1CC1 (stereo partly drawn) [Example 2.44.130., (2S,3R,4S,5R,6R)-2-(((5-Cyclopropyl-4-ethylisoxazol-3-yl)(4,4-difluoro-1-hydroxycyclohexyl)methyl)thio)-6-(hydroxymethyl)-4-(4-(3,4,5-trifluorophenyl)-1H-1,2,3-triazol-1-yl)tetrahydro-2H-pyran-3,5-diol] | 60 | 130 | –
13 | OC[C@H]1O[C@@H](S[C@@H](c2ccccc2C(F)(F)F)C2(O)CCOCC2)[C@H](O)[C@@H](n2cc(-c3cc(F)c(F)c(F)c3)nn2)[C@H]1O [Example 2.41.112S., (2R,3R,4S,5R,6S)-2-(Hydroxymethyl)-6-(((S)-(4-hydroxytetrahydro-2H-pyran-4-yl)(2-(trifluoromethyl)phenyl)methyl)thio)-4-(4-(3,4,5-trifluorophenyl)-1H-1,2,3-triazol-1-yl)tetrahydro-2H-pyran-3,5-diol] | – | 59400 | IC50 (human Gal-3 (hGal-3); [3]): 6000 nM
14 | CC(C)(O)[C@@H](S[C@@H]1O[C@H](CO)[C@H](O)[C@H](n2cc(-c3cc(F)c(F)c(F)c3)nn2)[C@H]1O)c1ccccc1C(F)(F)F [Example 2.31.112S., (2S,3R,4S,5R,6R)-2-(((S)-2-Hydroxy-2-methyl-1-(2-(trifluoromethyl)phenyl)propyl)thio)-6-(hydroxymethyl)-4-(4-(3,4,5-trifluorophenyl)-1H-1,2,3-triazol-1-yl)tetrahydro-2H-pyran-3,5-diol] | 7070 | 26400 | –
15 | CC(C)Cc1ccccc1C(S[C@@H]1O[C@H](CO)[C@H](O)[C@H](n2cc(-c3cc(F)c(F)c(F)c3)nn2)[C@H]1O)C(C)(C)O (stereo partly drawn) [Example 2.31.107., (2S,3R,4S,5R,6R)-2-((2-Hydroxy-1-(2-isobutylphenyl)-2-methylpropyl)thio)-6-(hydroxymethyl)-4-(4-(3,4,5-trifluorophenyl)-1H-1,2,3-triazol-1-yl)tetrahydro-2H-pyran-3,5-diol] | 260 | 240 | –
16 | (2S,3R,4S,5R,6R)-2-(((R)-((R)-4-Hydroxy-2,2-dimethyltetrahydro-2H-pyran-4-yl)(2-(trifluoromethyl)phenyl)methyl)thio)-6-(hydroxymethyl)-4-(4-(3,4,5-trifluorophenyl)-1H-1,2,3-triazol-1-yl)tetrahydro-2H-pyran-3,5-diol [Example 2.43.102RR.] | – | 8800 | IC50 (human Gal-3 (hGal-3); [3]): 290 nM
17 | Cc1cccnc1[C@@H](S[C@@H]1O[C@H](CO)[C@H](O)[C@H](n2cc(-c3cc(F)c(F)c(F)c3)nn2)[C@H]1O)C1(O)CCC(F)(F)CC1 [Example 2.44.126R., (2S,3R,4S,5R,6R)-2-(((R)-(4,4-Difluoro-1-hydroxycyclohexyl)(3-methylpyridin-2-yl)methyl)thio)-6-(hydroxymethyl)-4-(4-(3,4,5-trifluorophenyl)-1H-1,2,3-triazol-1-yl)tetrahydro-2H-pyran-3,5-diol] | 40 | 300 | –
18 | Cc1ncccc1C(S[C@@H]1O[C@H](CO)[C@H](O)[C@H](n2cc(-c3cc(F)c(F)c(F)c3)nn2)[C@H]1O)C(C)(C)O (stereo partly drawn) [Example 2.31.116., (2S,3R,4S,5R,6R)-2-((2-Hydroxy-2-methyl-1-(2-methylpyridin-3-yl)propyl)thio)-6-(hydroxymethyl)-4-(4-(3,4,5-trifluorophenyl)-1H-1,2,3-triazol-1-yl)tetrahydro-2H-pyran-3,5-diol] | 300 | 3780 | –
19 | CCCc1onc(C(S[C@@H]2O[C@H](CO)[C@H](O)[C@H](n3cc(-c4cc(F)c(F)c(F)c4)nn3)[C@H]2OC)C2(O)CCC(F)(F)CC2)c1CC (stereo partly drawn) [Example 2.44.146.I., (2R,3R,4S,5R,6S)-6-(((4,4-Difluoro-1-hydroxycyclohexyl)(4-ethyl-5-propylisoxazol-3-yl)methyl)thio)-2-(hydroxymethyl)-5-methoxy-4-(4-(3,4,5-trifluorophenyl)-1H-1,2,3-triazol-1-yl)tetrahydro-2H-pyran-3-ol] | – | 170 | IC50 (human Gal-3 (hGal-3); Table 11, read-out: IC50 (Gal-3 inhibition)): 120 nM
